Among the data in patent US12247018B2, “Aryl-n-aryl derivatives for treating a RNA virus infection” (ABIVAX, priority 2018, dated 2025) are EC50 values, retold here.

This assay concerns RSV A2. As to the kind of experiment: RSV inhibition (cytopathic effect) in HEp-2 cells using Viral ToxGlo assay. Format: cell-based. The conditions noted are these: human respiratory syncytial virus; RSV A2, HEp-2 cells, MOI 0.5, 72 h p.i. The protocol:
Protocol for Screening Antiviral Compounds for RSV Inhibition and Cytotoxicity Using Viral ToxGlo Assay
HEp-2 cells were maintained in Eagle's minimum essential medium (EMEM) with Earle's BSS adjusted to contain 2 mM L-glutamine, 10% fetal bovine serum, 100 U/ml penicillin and 100 μg/ml streptomycin. For the purposes of the screening assay they were grown to 90% confluency, trypsinized and recovered. The trypsin was neutralised with cell culture media and cells were centrifuged at 150×g for 5 minutes before discarding the supernatant and resuspending cell pellet in assay media (EMEM with Earle's BSS adjusted to contain 2 mM L-glutamine, 2% fetal bovine serum and 100 U/ml penicillin and 100 μg/ml streptomycin). The cells were seeded into white clear-bottomed cell culture plates at a density of 1.5×10^4 cells/well in 50 μl and 4×10^3 cells/well in 25 μl for 96 well plates and 384 well plates respectively. For the media/background control column assay media only was added. Cell plates were placed in a humid chamber and incubated overnight at 37° C./5% CO2. After overnight incubation cells were checked for confluency and healthy appearance.
Test articles were made up at 10× test concentration in a maximum DMSO concentration of 10% (final assay concentration maximal 1% DMSO) and added to the cell plates in volumes of 10 μl for 96 well plates and 5 μl for 384 well plates. For cell control and virus control wells the test article solvent only was added. Virus or assay media for cytotoxicity test wells and media/cell control wells was added immediately after test articles at an MOI of 0.5, 40 or 20 μl for 96 and 384 well plates respectively. Virus suspension was prepared by thawing RSV A2 frozen stocks and diluting to the required concentration of plaque forming units in assay media on ice.
Cell plates were further incubated inside a humid chamber for 72 h p.i at 37° C./5% CO2. After the incubation period cells were observed under the microscope to check for characteristic cytopathic effect in virus control wells and healthy cells in the cell control wells. After plates were adjusted to room temperature 20/40 μl Viral ToxGlo (Promega) was added to each well of the 384/96 well cell plates. Plates were incubated at room temperature, protected from light on a plate rocker for 20 minutes before measuring the luminescence on a spectrophotometer (Biotek Synergy HTX).
In general terms: Protection from cytopathic effect is a common read-out in antiviral testing.
Take `O=C1CCN/C(=N\C(=O)c2ccc(Nc3cccc(OCC4COCCO4)c3)c(C3CC3)c2)N1` (stereo not shown) [compound 161, 3-cyclopropyl-4-({3-[(1,4-dioxan-2-yl)methoxy]phenyl}amino)-N-[(2E)-4-oxo-1,3-diazinan-2-ylidene]benzamide]: the concentration for a half-maximal effect (EC50) is 1310 nM.

Turning to `O=C(N=C1NCCCN1)c1ccc(Nc2cccc(C(=O)NCCC3CCOCC3)c2)c(C2CC2)c1` [compound 126, 3-cyclopropyl-N-(1,3-diazinan-2-ylidene)-4-[(3-{[2-(oxan-4-yl)ethyl]carbamoyl}phenyl)amino]benzamide], the concentration giving a half-maximal response (EC50) worked out at 165 nM.

For `CC(C)C(=O)Nc1cccc(Nc2ccc(C(=O)/N=C3\NCCC(=O)N3)cc2C2CC2)c1C1CC1` [compound 122, 3-cyclopropyl-4-{[2-cyclopropyl-3-(2-methylpropanamido)phenyl]amino}-N-[(2E)-4-oxo-1,3-diazinan-2-ylidene]benzamide], the 50% effective concentration (EC50) was found to be 141 nM.

As to `CC(C)NC(=O)c1ccccc1Nc1ccc(C(=O)/N=C2\NCCC(=O)N2)cc1C(C)(C)C` [compound 100, 3-tert-butyl-N-[(2E)-4-oxo-1,3-diazinan-2-ylidene]-4-({2-[(propan-2-yl)carbamoyl]phenyl}amino)benzamide], the concentration giving a half-maximal response (EC50) came out at 37 nM.

Regarding `O=C(N=C1NCCCN1)c1ccc(Nc2cccc(OC3CCC3)c2)c(C2CC2)c1` [compound 129, 4-[(3-cyclobutoxyphenyl)amino]-3-cyclopropyl-N-(1,3-diazinan-2-ylidene)benzamide], the concentration for a half-maximal effect (EC50) is 223 nM.

Regarding `O=C(N=C1NCCCN1)c1ccc(Nc2cccc(OC(F)(F)F)c2)c(C2CC2)c1` [compound 137, 3-cyclopropyl-N-(1,3-diazinan-2-ylidene)-4-{[3-(trifluoromethoxy)phenyl]amino}benzamide], the concentration giving a half-maximal response (EC50) worked out at 304 nM.

For `O=C1CCN/C(=N\C(=O)c2ccc(Nc3cccc(C(=O)N4CCOCC4)c3Cl)c(C3CC3)c2)N1` [compound 95, 4-{[2-chloro-3-(morpholine-4-carbonyl)phenyl]amino}-3-cyclopropyl-N-[(2E)-4-oxo-1,3-diazinan-2-ylidene]benzamide], the EC50 is 19 nM.

For the compound `O=C1CCN/C(=N\C(=O)c2ccc(Nc3cccc(OCC4COCCO4)c3Cl)c(C3CC3)c2)N1` (stereo not shown) [compound 93, 4-({2-chloro-3-[(1,4-dioxan-2-yl)methoxy]phenyl}amino)-3-cyclopropyl-N-[(2E)-4-oxo-1,3-diazinan-2-ylidene]benzamide], the 50% effective concentration (EC50) is 13 nM.

Take `O=C(N=C1NCCCN1)c1ccc(Nc2cccc(OC(F)F)c2)c(C2CC2)c1` [compound 112, 3-cyclopropyl-N-(1,3-diazinan-2-ylidene)-4-{[3-(difluoromethoxy)phenyl]amino}benzamide]: the half-maximal effective concentration (EC50) came to 97 nM.

With `CC1(NC(=O)c2cccc(Nc3ccc(C(=O)/N=C4\NCCC(=O)N4)cc3C3CC3)c2)CC1` [compound 121, 3-cyclopropyl-4-({3-[(1-methylcyclopropyl)carbamoyl]phenyl}amino)-N-[(2E)-4-oxo-1,3-diazinan-2-ylidene]benzamide], the 50% effective concentration (EC50) is 139 nM.

As to `CC1(NC(=O)c2cccc(Nc3ccc(C(=O)N=C4NCCCN4)cc3C3CC3)c2)CC1` [compound 99, 3-cyclopropyl-N-(1,3-diazinan-2-ylidene)-4-({3-[(1-methylcyclopropyl)carbamoyl]phenyl}amino)benzamide], the EC50 is 34 nM.

As for `CC1(C)CN1C(=O)c1cccc(Nc2ccc(C(=O)N=C3NCCCN3)cc2C2CC2)c1` [compound 154, 3-cyclopropyl-N-(1,3-diazinan-2-ylidene)-4-{[3-(2,2-dimethylaziridine-1-carbonyl)phenyl]amino}benzamide], the 50% effective concentration (EC50) was 917 nM.

With `Cc1c(N)cccc1Nc1ccc(C(=O)N=C2NCCCN2)cc1C1CC1` [compound 135, 4-[(3-amino-2-methylphenyl)amino]-3-cyclopropyl-N-(1,3-diazinan-2-ylidene)benzamide], the EC50 was 286 nM.

As a reminder, the EC50 is the midpoint of the concentration-response curve.
